One assay deals with total ATXN3 protein. Nature of the assay: ATXN3 Total Protein Assay (Mesoscale Discovery, SK-N-MC cells). It is filed as cell-based, Human. To be noted: incubation for 48 hours, MSD assay. On the procedure: Example 35: ATXN3 Total Protein Assay
Human neuroblastoma SK-N-MC cells were seeded at 10,000 cells/well in 384 well plates one day prior to compound treatment. The concentrations of compounds were tested at appropriate doses ranging from 30 μM to 0.6 nM. After incubation for 48 hours, the cells were lysed with 25 μL of lysis buffer containing protease inhibitors, and total ATXN3 protein levels were assessed by Mesoscale Discovery (MSD) assay developed with one pair of anti-ATXN3 antibodies. The capture and detect antibodies were raised in mouse and rabbit respectively. Anti-rabbit MSD-ST antibody was used for secondary antibody.
ATXN3 recombinant protein was used for standards. The readouts were captured with 35 μL of MSD read buffer and multi-array 384-well high binding plates.

Another assay has as its system ATXN3-HiBiT protein. Nature of the assay: ATXN3 Total Protein Assay (Kelly-ATXN3-HiBiT luminescence). Type of assay: cell-based. To be noted: Kelly-ATXN3-HiBiT cells, 48 h after addition of compound. The method in brief: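 Endogenous ATXN3-HiBiT protein in knock-in Kelly neuroblastoma cells measured by lytic HiBiT luminescence 48 h post-compound (added 24 h after seeding 2000 cells/well). Values are fold changes relative to DMSO, with viability from a parallel CellTiter-Glo plate.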
(In general: HiBiT is a short tag that completes a luciferase, so light tracks the accessible tagged protein.)

Assay [1] concerns ATXN3 transcripts containing exon 4. In words: ATXN3 Quantitative Splicing Assay (qPCR, E4E5 primers/probe). The note with it: Homo sapiens, SK-N-MC cells, compounds for 24 h. It is filed as cell-based. The method in brief:
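Exon 4-containing ATXN3 transcripts are quantified by TaqMan qPCR (E4E5 primers/probe) on cell-lysate cDNA, with total ATXN3 from the E8E9 set. Source cells: human neuroblastoma SK-N-MC, exposed for 24 h to compound at 30 μM down to 0.6 nM.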
Background: Real-time PCR tracks product formation cycle by cycle.

pEC50, pIC50: −log10 of the molar value.

Regarding `C[C@H](N)Cc1oc2c(NCc3cccs3)cc(C#N)nc2c1Br` [Compound 35, 2-[(S)-2-aminopropyl]-3-bromo-7-thenylamino-1-oxa-4-aza-5-indenecarbonitrile], the pIC50 (with total ATXN3 protein; in assay [1]) was 6.30 to 7.00 in each case. The pEC50 in the assay on ATXN3-HiBiT protein is 6.30 to 7.00.
With `C[C@@H](F)[C@H](N)Cc1oc2c(NCc3ccco3)cc(Cl)nc2c1Br` [Compound 114, 2-[(2R,3R)-2-amino-3-fluorobutyl]-3-bromo-5-chloro-7-(furfurylamino)-1-oxa-4-azaindene], the pIC50 (with total ATXN3 protein; in assay [1]) was 5.30 to 6.30 each time. The same compound had a negative logarithm of the EC50 (pEC50) with ATXN3-HiBiT protein of 5.30 to 6.30.
As to `C[C@H](N)Cc1oc2c(NCc3cccs3)cc(Cl)nc2c1-c1ccn[nH]1` [Compound 319, 2-[(S)-2-aminopropyl]-5-chloro-3-(5-pyrazolyl)-7-thenylamino-1-oxa-4-azaindene], the pIC50 (in the assay on total ATXN3 protein; in assay [1]) was 5.30 to 6.30 throughout. Also, the pEC50 in the assay on ATXN3-HiBiT protein is 5.30 to 6.30.
On to `C#Cc1c(C[C@H](C)N)oc2c(NCc3cccs3)c(F)c(Cl)nc12` [Compound 276, 2-[(S)-2-aminopropyl]-5-chloro-3-ethynyl-6-fluoro-7-thenylamino-1-oxa-4-azaindene], for which the pIC50 (in the assay on total ATXN3 protein; in assay [1]) was 5.30 to 6.30 in each case. The compound further showed a pEC50 in the assay with ATXN3-HiBiT protein of 5.30 to 6.30.
With `C[C@H](N)Cc1oc2c(NCc3cccs3)cc(Cl)nc2c1Cl` [Compound 16, 2-[(S)-2-aminopropyl]-3,5-dichloro-7-thenylamino-1-oxa-4-azaindene], the pIC50 (with total ATXN3 protein; in assay [1]) was 7.00 to 11.00 in each case. Further, in the assay on ATXN3-HiBiT protein, the pEC50 is 7.00 to 11.00.
Consider `N[C@@H](CCO)Cc1oc2c(NCc3cccs3)cc(Cl)nc2c1Br` [Compound 131, (S)-3-amino-4-(3-bromo-5-chloro-7-thenylamino-1-oxa-4-aza-2-indenyl)-1-butanol], for which the pIC50 with total ATXN3 protein is 7.00 to 11.00; in assay [1], 6.30 to 7.00. This compound also gave a negative-log EC50 (pEC50) with ATXN3-HiBiT protein of 7.00 to 11.00.
As to `C[C@H](N)Cc1oc2c(NCc3cccs3)cc(Cl)nc2c1-c1ccoc1` [Compound 328, 2-[(S)-2-aminopropyl]-5-chloro-3-(3-furyl)-7-thenylamino-1-oxa-4-azaindene], the pIC50 (with total ATXN3 protein; in assay [1]) was 4.40 to 5.00 throughout. In the assay with ATXN3-HiBiT protein, the pEC50 was 4.40 to 5.00.
`C[C@H](N)Cc1oc2c(NCc3nccs3)cc(Cl)nc2c1Cl` [Compound 57, 2-[(S)-2-aminopropyl]-3,5-dichloro-7-{[(1,3-thiazol-2-yl)methyl]amino}-1-oxa-4-azaindene]: the negative logarithm of the IC50 (pIC50) (in the assay with total ATXN3 protein; in assay [1]) was 6.30 to 7.00 in each case. This compound also gave a pEC50 in the assay on ATXN3-HiBiT protein of 6.30 to 7.00.
`C[C@H](F)[C@H](N)Cc1oc2c(NCc3ccncc3)cc(Cl)nc2c1Br` [Compound 119, 2-[(2R,3S)-2-amino-3-fluorobutyl]-3-bromo-5-chloro-7-{[(4-pyridyl)methyl]amino}-1-oxa-4-azaindene]: the pIC50 (with total ATXN3 protein; in assay [1]) was 7.00 to 11.00 each time. The same compound had a pEC50 in the assay with ATXN3-HiBiT protein of 6.30 to 7.00.
As to `COC[C@H](N)Cc1oc2c(NCc3cccs3)cc(Cl)nc2c1Cl` [Compound 50, 2-[(R)-2-amino-3-methoxypropyl]-3,5-dichloro-7-thenylamino-1-oxa-4-azaindene], the negative-log IC50 (pIC50) (in the assay with total ATXN3 protein; in assay [1]) was 7.00 to 11.00 each time. This compound also had a pEC50 in the assay with ATXN3-HiBiT protein of 7.00 to 11.00.
In the case of `N[C@@H](CO)Cc1oc2c(NCc3cccs3)cc(Cl)nc2c1Cl` [Compound 21, (R)-2-amino-3-(3,5-dichloro-7-thenylamino-1-oxa-4-aza-2-indenyl)-1-propanol], the pIC50 (with total ATXN3 protein; in assay [1]) was 7.00 to 11.00 throughout. This compound also had a pEC50 with ATXN3-HiBiT protein of 7.00 to 11.00.
Turning to `N[C@H](Cc1oc2c(NCc3cccs3)cc(Cl)nc2c1Br)C1CC1` [Compound 134, 2-[(R)-2-amino-2-cyclopropylethyl]-3-bromo-5-chloro-7-thenylamino-1-oxa-4-azaindene], the pIC50 (in the assay with total ATXN3 protein; in assay [1]) was 5.30 to 6.30 throughout. The pEC50 in the assay with ATXN3-HiBiT protein is 5.30 to 6.30.

Usually pIC50 stands for the negative decadic logarithm of the IC50, by convention in mol/L. Usually pEC50 stands for the EC50 on a negative log10 scale, so that one unit is a factor of ten.

The values are drawn from patent publication US20260001889A1, “COMPOSITIONS USEFUL FOR MODULATING SPLICING” (Skyhawk Therapeutics, Inc., priority 2022, published 2026).
